Data taken from US5990179A, “Composition and method of enhancing electrotransport agent delivery” (ALZA Corporation, priority 1995, dated 1999).

Tests used:
[1] = transdermal flux of lidocaine and epinephrine from gel formulations 14 and 15 (Example 3); details: formulation 14 (pH 3.68) vs 15 (pH 6.42); samples at 10, 30, 60 and 90 minutes
Protocol: The formulation 14 and 15 gels were subjected to transdermal flux experiments using heat stripped chest and breast skin from human cadavers using the electrotransport permeation cell described in Example 2 and FIG. 3. Measurements were taken from the receptor compartment of the cell at 10 minutes, 30 minutes, 60 minutes, and 90 minutes after start of application of electrotransport current.

[2] = pH of lidocaine donor solutions of varying base:salt ratio (Example 1); assay type: physicochemical
Protocol: Two identical experiments were conducted at pHs 4.95 and 7.35, one at pH 6.85, and three at pH 6.25.

| Compound | transdermal flux, formulation 14 versus 15 [1] | pH ([2]; 0 mmoles lidocaine base, 199 mmoles lidocaine HCl) | pH ([2]; 2.1 mmoles lidocaine base, 195 mmoles lidocaine HCl) | pH ([2]; 6.0 mmoles lidocaine base, 191 mmoles lidocaine HCl) | pH ([2]; 20.3 mmoles lidocaine base, 179 mmoles lidocaine HCl) |
| --- | --- | --- | --- | --- | --- |
| CNC[C@H](O)c1ccc(O)c(O)c1 [epinephrine] | did not have a significant statistical difference between formulation 14 and 15 | – | – | – | – |
| CCN(CC)CC(=O)Nc1c(C)cccc1C [lidocaine] | – | 4.95 | 6.25 | 6.85 | 7.35 |
